{
  "source": "paper PMC4138991",
  "about": "“Building a Better Dynasore: The Dyngo Compounds Potently Inhibit Dynamin and Endocytosis” (Traffic (Copenhagen, Denmark), 2013)",
  "key": {"[1]": {"biological_target": "T1, recombinant rat dynamin II (Rattus norvegicus, UniProt P39052)", "T1 sequence (P39052 1-870)": "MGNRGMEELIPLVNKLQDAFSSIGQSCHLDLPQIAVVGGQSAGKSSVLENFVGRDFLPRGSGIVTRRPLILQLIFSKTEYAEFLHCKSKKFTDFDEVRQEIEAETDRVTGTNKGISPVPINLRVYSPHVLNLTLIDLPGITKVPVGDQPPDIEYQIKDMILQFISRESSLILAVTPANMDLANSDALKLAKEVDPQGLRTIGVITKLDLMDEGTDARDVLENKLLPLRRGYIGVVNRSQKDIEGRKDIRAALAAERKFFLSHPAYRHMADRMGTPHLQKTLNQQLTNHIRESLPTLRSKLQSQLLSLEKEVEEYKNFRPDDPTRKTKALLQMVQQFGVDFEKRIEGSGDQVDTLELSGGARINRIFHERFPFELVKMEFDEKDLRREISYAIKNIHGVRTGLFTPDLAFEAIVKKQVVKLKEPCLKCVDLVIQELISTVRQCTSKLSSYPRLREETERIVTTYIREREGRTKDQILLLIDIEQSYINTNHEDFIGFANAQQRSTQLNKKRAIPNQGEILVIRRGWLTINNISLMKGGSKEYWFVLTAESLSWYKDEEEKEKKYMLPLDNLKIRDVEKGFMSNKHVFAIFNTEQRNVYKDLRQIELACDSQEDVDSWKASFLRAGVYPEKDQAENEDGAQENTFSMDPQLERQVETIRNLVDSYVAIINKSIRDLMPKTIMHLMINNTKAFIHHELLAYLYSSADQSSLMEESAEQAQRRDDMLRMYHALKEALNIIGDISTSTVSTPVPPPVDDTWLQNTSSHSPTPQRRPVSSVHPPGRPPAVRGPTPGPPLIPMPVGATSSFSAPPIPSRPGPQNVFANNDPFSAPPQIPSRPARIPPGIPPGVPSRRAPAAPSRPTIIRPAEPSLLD", "assay": "Dynamin II GTPase assay (PS-stimulated)", "assay_type": "biochemical", "source_text": "Recombinant dynamin I was used only for the data in Table 2. The dynamin antibodies were from: Dynamin I—in‐house YF2 antibodies, raised in rabbits against two different synthetic peptides: dynamin I 629‐647 ([…]) and dynamin I 765–778 ([…]), used at 1/2000 dilution, as previously described 53; Dynamin II—Santa Cruz (C‐18, sc‐6400, used at 1/1000) and Dynamin III—Santa Cruz (P‐13, sc‐69472, used at 1/500 dilution).\nAssay conditions were based on the dynamin I assay but contained modifications. Recombinant dynamin II was used at 50 nM, stimulated by 10 µg/mL PS. The GTPase reaction was allowed to occur for 90 min at 37°C before termination."}, "[2]": {"system": "dynamin I SAI activity (rings)", "assay": "Self-assembly-induced (SAI) dynamin GTPase activity", "assay_type": "biochemical, sheep", "conditions": "presence of Tween, 500 nM dynamin", "description": "The Malachite Green colorimetric GTPase assay was as described 10. Dynamin I activity was measured in its SAI activity state or was stimulated by three different methods. As each stimulus activates dynamin to different extents, each assay required different dynamin concentrations. First, maximal dynamin activity was stimulated by sonicated PS liposomes 10. Purified dynamin I (10–20 nM, diluted in: 6 mM Tris–HCl, 20 mM NaCl and 0.01% Tween 80, pH 7.4) was incubated in 96‐well plates in GTPase buffer (5 mM Tris–HCl, 10 mM NaCl, 2 mM Mg^2+, 0.05% Tween 80, pH 7.4, 1 µg/mL leupeptin and 0.1 mM PMSF) and GTP 0.3 mM in the presence of test compound for 30 min at 37°C in a final assay volume of 150 μL. Reactions were terminated with 10 μL of 0.5 M ethylenediaminetetraacetic acid (EDTA) pH 7.4 and Malachite Green solution (40 μL: 2% w/v ammonium molybdate tetrahydrate, 0.15% w/v malachite green and 4 M HCl) was added for 5 min. Second, dynamin (20 nM) was stimulated by 10 µg/mL of taxol‐stabilized preformed bovine brain microtubules (Cytoskeleton, Inc) using the same protocol. […] Finally, dynamin (500 nM) SAI activity was measured using high concentrations of dynamin, which promote its cooperative self‐assembly into rings (but not helices) 26. […] After the Vmax and Km values were determined, the data were transformed using the Lineweaver–Burke equation, 1/v = 1/Vmax + (Km/Vmax)(1/[S])."}, "Calyx of Held": {"system": "Calyx of Held", "assay": "Membrane capacitance measurements at the Calyx of Held in brain slices", "assay_type": "cell-based, mice", "conditions": "for SVE (decay of membrane capacitance): direct application by puffing pipette: 300 μM 4a, 800 μM dynasore"}, "cultured CGNs": {"system": "cultured CGNs", "assay": "Fluorescent dextran uptake (ADBE) in CGNs", "assay_type": "cell-based, rat", "conditions": "30 μM, 15 min", "description": "Granule neuron cultures were prepared from the cerebella of 7‐day‐old rat pups as previously described 57. In all experiments, neurons were used between 8 and 10 days in vitro.\nUptake of tetramethyrhodamine‐dextran (40 kDa) into nerve terminals of CGNs was monitored as described previously 40. Briefly, cells were left for 10 min in incubation medium and then stimulated with a train of 800 action potentials (80 Hz for 10 seconds) in the presence of tetramethyrhodamine‐dextran (50 μM). Dyngo compound 4a (30 μM) was present for 15 min prior to and including action potential stimulation. Dextran loading was determined by the number of fluorescent puncta in a defined field of view ([…]) using a 20× air objective at 550‐nm excitation and >575‐nm emission. Threshold analysis was performed to discount regions too large to represent individual nerve terminals (diameter greater than […]). The number of dextran puncta per field for each experiment (usually 10 fields of view per experiment) was averaged and subtracted from background fluorescence. To ensure that the density of nerve terminals was consistent between fields and experimental conditions, experiments were performed on the same set of cultures."}},
  "note": "Entries after “also recorded” stand apart in the source; their conditions may differ. Where two headings read alike, the source gives them in different places.",
  "data": [
    {"smiles": "O=C(N/N=C/c1ccc(O)c(O)c1)c1cc2ccccc2cc1O", "note": "[Dynasore, (E)-N'-(3,4-Dihydroxybenzylidene)-3-hydroxy-2-naphthohydrazide]", "values": [
      {"measurement": "IC50", "setting": "[1]; detergent removed from the assay, n = 2, read-out: IC50 full-length helical dynamin II", "result": "18.1 ± 0.2", "unit": "µM"},
      {"measurement": "effect on dynamin II", "setting": "[1]; standard assay with Tween-80, up to 1.5 mM", "result": "no effect"},
      {"measurement": "inhibition of SAI (self-assembly) activity", "setting": "[2]", "result": "did not block"},
      {"measurement": "SVE (decay of membrane capacitance)", "setting": "Calyx of Held", "result": "inhibits SVE"}
    ]},
    {"smiles": "O=C(N/N=C/c1cc(O)c(O)cc1O)c1cc2ccccc2cc1O", "note": "[4a, (E)-3-Hydroxy-N'-(2,4,5-trihydroxybenzylidene) -2-naphthohydrazide]", "values": [
      {"measurement": "IC50", "setting": "[1]; Absence of Tween, DynII 50 nM, no unit in table, read-out: IC50 DynII (rec)", "result": "2.3 ± 0.2", "unit": "µM"},
      {"measurement": "IC50", "setting": "[1]; Presence of Tween, DynII 50 nM, no unit in table, read-out: IC50 DynII (rec)", "result": "92.3 ± 10.9", "unit": "µM"},
      {"measurement": "inhibition of SAI (self-assembly) activity", "setting": "[2]", "result": "not at all inhibited; also recorded: without effect"},
      {"measurement": "maximum block of ADBE measured by dextran uptake", "setting": "cultured CGNs", "result": "> 80", "unit": "%"},
      {"measurement": "exocytosis (capacitance jump)", "setting": "Calyx of Held; 300 μM 4a in puffing pipette", "result": "did not acutely affect exocytosis"},
      {"measurement": "SVE (decay of membrane capacitance)", "setting": "Calyx of Held", "result": "complete blockade of SVE"}
    ]}
  ]
}
